Source: US6465221B1, “Method of producing a taxane-type diterpene” (Mitsui Chemicals, Inc., priority 1994, dated 2002)

Key:
Format in all cases: cell-based
[1] = tested on: cultured cells of Taxus baccata LINN; assay: Taxus baccata cell culture with cyclic polysaccharides; conditions: 50 mM, 6-O-α-D-glucosyl-β-cyclodextrin was used
Experimental: (§1) A part of stem of Taxus baccata LINN which had been previously sterilized with 2% antiformin solution or 70% ethanol solution or the like, was placed on solid Woody Plant Medium (containing gelan gum of 0.25% by weight) to which naphthalenacetic acid had been added to give the concentration of 10^−5 M, and static culture was carried out at 25° C. in a dark place to provide callus of Taxus baccata LINN. 0.1 g (fresh weight) of the callus was inoculated to a well having an inner diameter of 18 mm, containing 1 ml of liquid Woody Plant Medium to which the above-mentioned component was added to give the same concentration and shake culture was carried out with a rotary shaker (amplification of 25 mm, 120 rpm) and the callus was subcultured in every 28 days to accelerate the growth rate thereof.
One gram (fresh weight) of the cultured cells thus obtained was inoculated to an Erlenmeyer flask containing 20 ml of liquid Woody Plant Medium to which the above-mentioned component was added to give the same concentration, and shake culture was carried out at 25° C. for 14 days. […]
After completing the culture, cultured cells of Taxus baccata LINN were harvested by filtration and lyophilized, then the dry weight was measured to obtain the yeild thereof per liter of the liquid medium.

[2] = tested on: cultured cells of Taxus baccata LINN; assay: Taxus baccata cell culture with cyclic polysaccharides and methyl ester of jasmonic acid; conditions: 6-O-α-D-glucosyl-β-cyclodextrin 50 mM + methyl ester of jasmonic acid 100 μM
Experimental: […] After completing the culture, cultured cells of Taxus baccata LINN were harvested by filtration and lyophilized, then the dry weight was measured to obtain the yeild thereof per liter of the liquid medium.

[3] = tested on: cultured cells of Taxus media; assay: Taxus media cell culture with coronatine; conditions: concentration of coronatines 1 μM
Experimental: (§2) One gram (fresh weight) of the cultured cells thus obtained was inoculated to an Erlenmeyer flask containing 20 ml of liquid Woody Plant Medium to which the above-mentioned component was added to give the same concentration, and shake culture was carried out at 25° C. for 14 days. On the 14th day after starting the culture, 50 μl of coronatine [formula (IV)] was added as coronatines to the culture medium to give the final concentration of 0.001-1000 μM and the culture was further carried out for another 7 days.
(§3) After completing the culture, cultured cells of Taxus baccata LINN were harvested by filtration and lyophilized, then the dry weight was measured to obtain the yeild of the cultured cells per liter of the liquid medium.
Example 7 was repeated except that cultured cells of Taxus media, which was obtained in the process analogous to that of said example were used and coronatine was added as coronatines to give the final concentration of 1 μM.

[4] = tested on: cultured cells of Taxus baccata LINN; assay: Taxus baccata cell culture with coronatines
Experimental: as §1, with “at 25 °” for “at 25°”, “LINN. One gram” for “LINN. 0.1 g”, “to” for “to a well having”, “an Erlenmeyer flask” for “an inner diameter of 18 mm,”, “containing 20” for “containing 1”, “every 21” for “every 28”
as §2, §3

[5] = concentration of coronatines 0.001 μM
[6] = concentration of coronatines 0.01 μM
[7] = concentration of coronatines 0.1 μM
[8] = concentration of coronatines 1 μM
[9] = concentration of coronatines 10 μM
[10] = concentration of coronatines 100 μM
[11] = concentration of coronatines 1000 μM

`OC[C@H]1O[C@H](OC[C@H]2O[C@@H]3O[C@H]4[C@H](O)[C@@H](O)[C@@H](O[C@H]5[C@H](O)[C@@H](O)[C@@H](O[C@H]6[C@H](O)[C@@H](O)[C@@H](O[C@H]7[C@H](O)[C@@H](O)[C@@H](O[C@H]8[C@H](O)[C@@H](O)[C@@H](O[C@H]9[C@H](O)[C@@H](O)[C@@H](O[C@H]2[C@H](O)[C@H]3O)O[C@@H]9CO)O[C@@H]8CO)O[C@@H]7CO)O[C@@H]6CO)O[C@@H]5CO)O[C@@H]4CO)[C@H](O)[C@@H](O)[C@@H]1O` [Example 17, 6-O-α-D-glucosyl-β-cyclodextrin] was tested, and the “yeild of cultured cells” value [1] was 20.5 g/L, the “yield of baccatin III” value [1] was 3.5 mg/L and the yield of cephalomannine [1] was 1.3 mg/L. For the same compound, the yield of taxol [1] was 8.2 mg/L, the “yield of baccatin III” value [2] was 53.0 mg/L and the yield of cephalomannine [2] was 11.1 mg/L. The “yield of cultured cells” value [2] was 17.5 g/L and the yield of taxol [2] was 45.9 mg/L.

In the case of `CCC1C=C(C(=O)NC2(C(=O)O)CC2CC)C2CCC(=O)C2C1` (stereo not shown) [Example 7, coronatine], the “yield of baccatin III” value [3] is reported as 26.5 mg/L, the yield of cephalomannine [3] is reported as 15.1 mg/L and the “yield of cultured cells” value [3] is reported as 18.6 g/L. For the same compound, the yield of taxol [3] was 65.2 mg/L, the “yield of baccatin III” value [4, 5] was 5.0 mg/L and the yield of cephalomannine [4, 5] was 3.8 mg/L. For the same compound, the “yield of cultured cells” value [4, 5] was 20.1 g/L, the yield of taxol [4, 5] was 9.6 mg/L and the “yield of baccatin III” value [4, 6] was 8.9 mg/L. The yield of cephalomannine [4, 6] was 10.2 mg/L, the “yield of cultured cells” value [4, 6] was 20.2 g/L and the yield of taxol [4, 6] was 15.2 mg/L. For the same compound, the “yield of baccatin III” value [4, 7] was 18.7 mg/L, the yield of cephalomannine [4, 7] was 12.3 mg/L and the “yield of cultured cells” value [4, 7] was 18.6 g/L. For the same compound, the yield of taxol [4, 7] was 30.1 mg/L, the “yield of baccatin III” value [4, 8] was 28.4 mg/L and the yield of cephalomannine [4, 8] was 11.4 mg/L. The “yield of cultured cells” value [4, 8] was 18.4 g/L, the yield of taxol [4, 8] was 60.0 mg/L and the “yield of baccatin III” value [4, 9] was 38.5 mg/L. For the same compound, the yield of cephalomannine [4, 9] was 8.8 mg/L, the “yield of cultured cells” value [4, 9] was 17.8 g/L and the yield of taxol [4, 9] was 49.4 mg/L. For the same compound, the “yield of baccatin III” value [4, 10] was 44.1 mg/L, the yield of cephalomannine [4, 10] was 7.9 mg/L and the “yield of cultured cells” value [4, 10] was 17.5 g/L. For the same compound, the yield of taxol [4, 10] was 58.0 mg/L, the “yield of baccatin III” value [4, 11] was 13.2 mg/L and the yield of cephalomannine [4, 11] was 6.5 mg/L. The “yield of cultured cells” value [4, 11] was 15.0 g/L and the yield of taxol [4, 11] was 23.1 mg/L.
